# Experimental data as given in patent US20100298141A1, “SUBSTITUTED PYRIDINE N-OXIDE HERBICIDES” (E. I. DU PONT DE NEMOURS AND COMPANY, priority 2007, published 2010).
# Key:
# [1] = system: broadleaf signalgrass; assay: Test F preemergence test; format: in vivo, Brachiaria platyphylla; conditions: scale 0 to 100
# Outline: (§1)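 Compounds in a non-phytotoxic solvent formulation with surfactant were applied before emergence after sowing, or, for sugarcane, also postemergence. Evaluation was visual, against controls, after 14 to 21 greenhouse days.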
# [2] = system: mustard; assay: Test F preemergence test; format: in vivo, Brassica nigra; conditions: scale 0 to 100
# Outline: as §1
# [3] = system: common ragweed; assay: Test C pre-/postemergence test; format: in vivo, Ambrosia elation; conditions: for Plant response rating, Ragweed: 31 g ai/ha, scale 0 to 100 (0 no effect, 100 complete control)
# Outline: (§2)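 Seeds were planted and treated preemergence with test chemical in a non-phytotoxic solvent mixture containing surfactant. Postemergence applications of the same formulation went onto plants 2 to 18 cm tall (1- to 4-leaf stage). A dash marks no test result.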
# [4] = system: prickly sida; assay: Test F preemergence test; format: in vivo, Sida spinosa; conditions: scale 0 to 100
# Outline: as §1
# [5] = system: Virginia dayflower; assay: Test F preemergence test; format: in vivo, Commelina virginica; conditions: scale 0 to 100
# Outline: as §1
# [6] = system: kochia; assay: Test F preemergence test; format: in vivo, Kochia scoparia; conditions: scale 0 to 100
# Outline: as §1
# [7] = system: bermudagrass; assay: Test F preemergence test; format: in vivo, Cynodon dactylon; conditions: scale 0 to 100
# Outline: as §1
# [8] = system: Surinam grass; assay: Test F preemergence test; format: in vivo, Brachiaria decumbens; conditions: scale 0 to 100
# Outline: as §1
# [9] = system: blackgrass; assay: Test C pre-/postemergence test; format: in vivo, Alopecurus myosuroides; conditions: for Plant response rating, Blackgrass: 31 g ai/ha, scale 0 to 100 (0 no effect, 100 complete control)
# Outline: as §2
# [10] = system: dallisgrass; assay: Test F preemergence test; format: in vivo, Paspalum dilatatum; conditions: scale 0 to 100
# Outline: as §1
# [11] = system: green foxtail; assay: Test C pre-/postemergence test; format: in vivo, Setaria viridis; conditions: for Plant response rating, Foxtail, Green: 31 g ai/ha, scale 0 to 100 (0 no effect, 100 complete control)
# Outline: as §2
# [12] = system: quackgrass; assay: Test F preemergence test; format: in vivo, Elytrigia repens; conditions: scale 0 to 100
# Outline: as §1
# [13] = system: corn; assay: Test A pre-/postemergence greenhouse test; format: in vivo, Zea mays; conditions: for Corn plant response rating: 0 to 100 scale; for Plant response rating, Corn: 0 to 100 scale where 0 is no effect and 100 is complete control
# Outline: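 Test compounds in non-phytotoxic solvent with surfactant were applied as a preemergence soil spray to seeded loam/sand pots and, concurrently, postemergence to plants at 2–10 cm, one- to two-leaf stage. About ten days in greenhouse, then injury visually rated against untreated controls.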
# [14] = system: common mallow; assay: Test F preemergence test; format: in vivo, Malva sylvestris; conditions: scale 0 to 100
# Outline: as §1
# [15] = 62 g ai/ha, Preemergence, scale 0 to 100
# [16] = Postemergence, 500 g ai/ha, 0 is no effect, 100 is complete control
# [17] = Preemergence, 125 g ai/ha, 0 no effect, 100 complete control
# [18] = preemergence, 250 g ai/ha, scale 0 (no effect) to 100 (complete control)
# [19] = 125 g ai/ha, preemergence, scale 0 (no effect) to 100 (complete control)
smiles,measurement,setting,value
Cc1cc[n+]([O-])c([S+]([O-])Cc2c(C(F)(F)F)nn(C)c2OCC(F)(F)F)c1 (racemic) [Compound 30],Signalgrass plant response rating,"[1]; 62 g ai/ha, Preemergence",70
same,Signalgrass plant response rating,"[1]; 125 g ai/ha, preemergence",90
same,"Plant response rating, Signalgrass","[1]; Preemergence, 31 g ai/ha",65
same,Black Mustard plant response rating,"[2]; 62 g ai/ha, Preemergence",100
same,Black Mustard plant response rating,"[2]; 125 g ai/ha, preemergence",100
same,"Plant response rating, Black Mustard","[2]; Preemergence, 16 g ai/ha",70
same,"Plant response rating, Black Mustard","[2]; Preemergence, 31 g ai/ha",90
same,Ragweed plant response rating,[3]; [15],60
same,"Plant response rating, Ragweed",[3]; Preemergence,0
same,Prickly Sida plant response rating,"[4]; 62 g ai/ha, Preemergence",95
same,Prickly Sida plant response rating,"[4]; 125 g ai/ha, preemergence",100
same,"Plant response rating, Prickly Sida","[4]; Preemergence, 16 g ai/ha",60
same,"Plant response rating, Prickly Sida","[4]; Preemergence, 31 g ai/ha",80
same,Dayflower plant response rating,"[5]; 62 g ai/ha, Preemergence",90
same,Dayflower plant response rating,"[5]; 125 g ai/ha, preemergence",100
same,"Plant response rating, Dayflower","[5]; Preemergence, 16 g ai/ha",50
same,"Plant response rating, Dayflower","[5]; Preemergence, 31 g ai/ha",70
same,Kochia plant response rating,"[6]; 62 g ai/ha, Preemergence",95
same,Kochia plant response rating,"[6]; 125 g ai/ha, preemergence",95
same,"Plant response rating, Kochia","[6]; Preemergence, 16 g ai/ha",90
same,"Plant response rating, Kochia","[6]; Preemergence, 31 g ai/ha",90
same,Bermudagrass plant response rating,"[7]; 62 g ai/ha, Preemergence",98
same,Bermudagrass plant response rating,"[7]; 125 g ai/ha, preemergence",100
same,"Plant response rating, Bermudagrass","[7]; Preemergence, 16 g ai/ha",40
same,"Plant response rating, Bermudagrass","[7]; Preemergence, 31 g ai/ha",80
same,Surinam Grass plant response rating,"[8]; 62 g ai/ha, Preemergence",80
same,Surinam Grass plant response rating,"[8]; 125 g ai/ha, preemergence",100
same,"Plant response rating, Surinam Grass","[8]; Preemergence, 31 g ai/ha",75
same,Blackgrass plant response rating,[9]; [15],100
same,"Plant response rating, Blackgrass",[9]; Preemergence,80
same,"Plant response rating (0 to 100), Blackgrass","[9]; Preemergence, 250 g ai/ha",100
same,Blackgrass plant response rating,"[9]; preemergence, 125 g ai/ha, scale 0 (no effect) to 100 (complete control)",100
same,Dallisgrass plant response rating,"[10]; 62 g ai/ha, Preemergence",85
same,Dallisgrass plant response rating,"[10]; 125 g ai/ha, preemergence",98
same,"Plant response rating, Dallisgrass","[10]; Preemergence, 16 g ai/ha",50
same,"Plant response rating, Dallisgrass","[10]; Preemergence, 31 g ai/ha",50
same,"Foxtail, Green plant response rating",[11]; [15],100
same,"Plant response rating, Foxtail, Green",[11]; Preemergence,100
same,"Plant response rating (0 to 100), Foxtail, Green","[11]; Preemergence, 250 g ai/ha",100
same,Quackgrass plant response rating,"[12]; 62 g ai/ha, Preemergence",70
same,Quackgrass plant response rating,"[12]; 125 g ai/ha, preemergence",75
same,"Plant response rating, Quackgrass","[12]; Preemergence, 16 g ai/ha",15
same,"Plant response rating, Quackgrass","[12]; Preemergence, 31 g ai/ha",40
same,Corn plant response rating,"[13]; Postemergence, 125 g ai/ha, 0 is no effect, 100 is complete control",50
same,Corn plant response rating,[13]; [16],60
same,Corn plant response rating,[13]; [17],0
same,"Plant response rating, Corn","[13]; Preemergence, 500 g ai/ha",70
same,Mallow plant response rating,"[14]; 62 g ai/ha, Preemergence",100
same,Mallow plant response rating,"[14]; 125 g ai/ha, preemergence",100
same,"Plant response rating, Mallow","[14]; Preemergence, 16 g ai/ha",90
same,"Plant response rating, Mallow","[14]; Preemergence, 31 g ai/ha",95
CCn1nc(C(F)(F)F)c(C[S+]([O-])c2cc(C)cc[n+]2[O-])c1OCC(F)(F)F (racemic) [Compound 66],"Plant response rating, Signalgrass","[1]; 16 g ai/ha, preemergence",30
same,Signalgrass plant response rating,"[1]; 125 g ai/ha, preemergence",95
same,"Plant response rating, Signalgrass","[1]; Preemergence, 62 g ai/ha",65
same,"Plant response rating, Signalgrass","[1]; Preemergence, 31 g ai/ha",30
same,"Plant response rating, Black Mustard","[2]; 16 g ai/ha, preemergence",50
same,Black Mustard plant response rating,"[2]; 62 g ai/ha, Preemergence",100
same,Black Mustard plant response rating,"[2]; 125 g ai/ha, preemergence",100
same,"Plant response rating, Black Mustard","[2]; Preemergence, 31 g ai/ha",65
same,Ragweed plant response rating,[3]; [15],100
same,"Plant response rating, Ragweed",[3]; Preemergence,100
same,Ragweed plant response rating,[3]; [18],100
same,"Plant response rating, Prickly Sida","[4]; 16 g ai/ha, preemergence",20
same,Prickly Sida plant response rating,"[4]; 62 g ai/ha, Preemergence",75
same,Prickly Sida plant response rating,"[4]; 125 g ai/ha, preemergence",98
same,"Plant response rating, Prickly Sida","[4]; Preemergence, 31 g ai/ha",20
same,"Plant response rating, Dayflower","[5]; 16 g ai/ha, preemergence",0
same,"Plant response rating, Dayflower","[5]; Preemergence, 31 g ai/ha",0
same,"Plant response rating, Kochia","[6]; 16 g ai/ha, preemergence",0
same,Kochia plant response rating,"[6]; 62 g ai/ha, Preemergence",15
same,Kochia plant response rating,"[6]; 125 g ai/ha, preemergence",90
same,"Plant response rating, Kochia","[6]; Preemergence, 31 g ai/ha",0
same,"Plant response rating, Bermudagrass","[7]; 16 g ai/ha, preemergence",40
same,Bermudagrass plant response rating,"[7]; 62 g ai/ha, Preemergence",75
same,Bermudagrass plant response rating,"[7]; 125 g ai/ha, preemergence",98
same,"Plant response rating, Bermudagrass","[7]; Preemergence, 31 g ai/ha",60
same,"Plant response rating, Surinam Grass","[8]; 16 g ai/ha, preemergence",0
same,Surinam Grass plant response rating,"[8]; 125 g ai/ha, preemergence",100
same,"Plant response rating, Surinam Grass","[8]; Preemergence, 62 g ai/ha",98
same,"Plant response rating, Surinam Grass","[8]; Preemergence, 31 g ai/ha",90
same,Blackgrass plant response rating,[9]; [15],70
same,Blackgrass plant response rating,[9]; [19],100
same,"Plant response rating, Blackgrass",[9]; Preemergence,50
same,Blackgrass plant response rating,[9]; [18],100
same,"Plant response rating, Dallisgrass","[10]; 16 g ai/ha, preemergence",0
same,Dallisgrass plant response rating,"[10]; 62 g ai/ha, Preemergence",95
same,Dallisgrass plant response rating,"[10]; 125 g ai/ha, preemergence",100
same,"Plant response rating, Dallisgrass","[10]; Preemergence, 31 g ai/ha",65
same,"Foxtail, Green plant response rating",[11]; [15],100
same,"Foxtail, Green plant response rating",[11]; [19],100
same,"Plant response rating, Foxtail, Green",[11]; Preemergence,85
same,"Foxtail, Green plant response rating",[11]; [18],100
same,"Plant response rating, Quackgrass","[12]; 16 g ai/ha, preemergence",70
same,Quackgrass plant response rating,"[12]; 62 g ai/ha, Preemergence",85
same,Quackgrass plant response rating,"[12]; 125 g ai/ha, preemergence",100
same,"Plant response rating, Quackgrass","[12]; Preemergence, 31 g ai/ha",75
same,"Plant response rating, Corn","[13]; Postemergence, 125 g ai/ha",50
same,Corn plant response rating,[13]; [16],80
same,Corn plant response rating,[13]; [17],30
same,"Plant response rating, Corn","[13]; Preemergence, 500 g ai/ha",80
same,"Plant response rating, Mallow","[14]; 16 g ai/ha, preemergence",0
same,Mallow plant response rating,"[14]; 62 g ai/ha, Preemergence",80
same,Mallow plant response rating,"[14]; 125 g ai/ha, preemergence",100
same,"Plant response rating, Mallow","[14]; Preemergence, 31 g ai/ha",70
